Values of other authors, collected in publication PMC9516332 (Frontiers in Oncology, 2022).
Where two headings read alike, the source gives them in different places.

Key:
[1] = target: panel of 255 wild-type kinases (Homo sapiens, UniProt Q04759); details: kinase PKCθ, 1 µmol/L single concentration, cited from earlier work
[2] = target: panel of 255 wild-type kinases (Homo sapiens, UniProt O94804); details: kinase LOK, 1 µmol/L single concentration, cited from earlier work
[3] = target: T1, panel of 255 wild-type kinases (Homo sapiens, UniProt Q12851); details: kinase MAP4K2, 1 µmol/L single concentration, cited from earlier work
T1 sequence (Q12851 1-820): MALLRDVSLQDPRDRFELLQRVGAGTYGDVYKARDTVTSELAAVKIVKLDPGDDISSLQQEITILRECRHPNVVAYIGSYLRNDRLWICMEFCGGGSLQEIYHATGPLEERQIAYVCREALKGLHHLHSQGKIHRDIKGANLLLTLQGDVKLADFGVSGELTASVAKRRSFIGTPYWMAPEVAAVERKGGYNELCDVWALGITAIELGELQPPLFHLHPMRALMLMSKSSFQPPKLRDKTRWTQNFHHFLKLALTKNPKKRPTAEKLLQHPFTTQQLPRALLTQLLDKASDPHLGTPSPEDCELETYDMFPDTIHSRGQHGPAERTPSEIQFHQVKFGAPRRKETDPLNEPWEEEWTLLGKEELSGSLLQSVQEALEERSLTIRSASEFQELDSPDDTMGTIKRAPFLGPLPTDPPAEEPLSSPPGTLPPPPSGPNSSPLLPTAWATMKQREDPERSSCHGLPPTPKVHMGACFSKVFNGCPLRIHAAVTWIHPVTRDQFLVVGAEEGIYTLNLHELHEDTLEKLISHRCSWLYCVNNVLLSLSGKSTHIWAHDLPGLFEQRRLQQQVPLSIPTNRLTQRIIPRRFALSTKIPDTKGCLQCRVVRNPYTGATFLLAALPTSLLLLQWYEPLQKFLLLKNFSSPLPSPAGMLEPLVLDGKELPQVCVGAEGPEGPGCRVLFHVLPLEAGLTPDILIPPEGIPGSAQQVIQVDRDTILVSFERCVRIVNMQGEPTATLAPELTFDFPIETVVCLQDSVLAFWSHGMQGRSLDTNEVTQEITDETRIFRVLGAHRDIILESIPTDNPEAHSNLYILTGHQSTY

[4] = target: panel of 255 wild-type kinases (Homo sapiens, UniProt Q08345); details: kinase DDR1, 1 µmol/L single concentration, cited from earlier work
[5] = target: panel of 255 wild-type kinases (Homo sapiens, UniProt Q16288); details: kinase TRKC, 1 µmol/L single concentration, cited from earlier work
[6] = target: panel of 255 wild-type kinases (Homo sapiens, UniProt P43405); details: kinase SYK, 1 µmol/L single concentration, cited from earlier work
[7] = target: panel of 255 wild-type kinases (Homo sapiens, UniProt P68400); details: kinase CK2α1/β, 1 µmol/L single concentration, cited from earlier work
[8] = target: panel of 255 wild-type kinases (Homo sapiens, UniProt P08631); details: kinase HCK, 1 µmol/L single concentration, cited from earlier work
[9] = target: T2, panel of 255 wild-type kinases (Homo sapiens, UniProt Q8IW41); details: MAPKAPK5, 1 µmol/L single concentration, cited from earlier work
T2 sequence (Q8IW41 1-473): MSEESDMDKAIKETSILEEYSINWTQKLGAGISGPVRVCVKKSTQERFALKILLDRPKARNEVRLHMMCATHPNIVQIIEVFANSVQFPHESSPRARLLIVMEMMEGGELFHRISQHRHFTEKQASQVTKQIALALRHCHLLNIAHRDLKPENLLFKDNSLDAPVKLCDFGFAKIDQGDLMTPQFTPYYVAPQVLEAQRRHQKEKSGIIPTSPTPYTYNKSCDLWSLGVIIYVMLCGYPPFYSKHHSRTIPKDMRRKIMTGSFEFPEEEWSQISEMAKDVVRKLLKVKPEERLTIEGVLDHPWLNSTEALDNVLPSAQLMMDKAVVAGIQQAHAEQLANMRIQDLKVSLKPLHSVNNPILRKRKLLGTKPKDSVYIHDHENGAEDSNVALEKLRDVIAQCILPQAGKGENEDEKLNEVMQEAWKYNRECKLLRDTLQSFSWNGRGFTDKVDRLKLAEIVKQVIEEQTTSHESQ

[10] = target: panel of 255 wild-type kinases (Homo sapiens, UniProt P07948); details: kinase LYNa, 1 µmol/L single concentration, cited from earlier work
[11] = target: panel of 255 wild-type kinases (Homo sapiens, UniProt P50750); details: CDK9/CycT1 kinase assay, 1 µmol/L single concentration, cited from earlier work
[12] = target: panel of 255 wild-type kinases (Homo sapiens, UniProt Q7KZI7); details: MARK2, 1 µmol/L single concentration, cited from earlier work
[13] = target: panel of 255 wild-type kinases (Homo sapiens, UniProt P22607); details: kinase FGFR3, 1 µmol/L single concentration, cited from earlier work
[14] = ref DOI: 10.1158/1535-7163.MCT-18-0877
[15] = ref DOI: 10.1371/journal.pone.0092146

Cc1cc(Nc2ncc(Cl)c(Nc3ccccc3S(=O)(=O)C(C)C)n2)c(OC(C)C)cc1C1CCNCC1 [ceritinib]
%-inhibition at 1 µmol/L, PKCθ [1, 14]: -0.708%
%-inhibition at 1 µmol/L, LOK [2, 14]: 75%
%-inhibition at 1 µmol/L, MAP4K2 [3, 14]: 7.37%
%-inhibition at 1 µmol/L, DDR1 [4, 14]: 50%
%-inhibition at 1 µmol/L, TRKC [5, 14]: 9%
%-inhibition at 1 µmol/L, SYK [6, 14]: 5%
%-inhibition at 1 µmol/L, CK2α1/β [7, 14]: -8%
%-inhibition at 1 µmol/L, HCK [8, 14]: 15%
%-inhibition, MAPKAPK5 [9, 14]: -2.68%
%-inhibition at 1 µmol/L, LYNa [10, 14]: 16%
%-inhibition CDK9/CycT1 [11, 14]: 0.194%
%-inhibition, MARK2 [12, 14]: 4%
%-inhibition at 1 µmol/L, FGFR3 [13, 14]: 21%

O=C(c1ccc(F)c(F)c1Nc1ccc(I)cc1F)N1CC(O)([C@@H]2CCCCN2)C1 [cobimetinib]
%-inhibition at 1 µmol/L, PKCθ [1, 14]: -4.34%
%-inhibition at 1 µmol/L, LOK [2, 14]: 10%
%-inhibition at 1 µmol/L, MAP4K2 [3, 14]: -5.57%
%-inhibition at 1 µmol/L, DDR1 [4, 14]: 6.37%
%-inhibition at 1 µmol/L, TRKC [5, 14]: -1.37%
%-inhibition at 1 µmol/L, SYK [6, 14]: -23%
%-inhibition at 1 µmol/L, CK2α1/β [7, 14]: -9%
%-inhibition at 1 µmol/L, HCK [8, 14]: -3.63%
%-inhibition, MAPKAPK5 [9, 14]: -1%
%-inhibition at 1 µmol/L, LYNa [10, 14]: -1.81%
%-inhibition CDK9/CycT1 [11, 14]: 1.36%
%-inhibition, MARK2 [12, 14]: -6.58%
%-inhibition at 1 µmol/L, FGFR3 [13, 14]: 5%

C=CC(=O)Nc1cc(Nc2nccc(-c3cn(C)c4ccccc34)n2)c(OC)cc1N(C)CCN(C)C [osimertinib]
%-inhibition at 1 µmol/L, PKCθ [1, 14]: 10%
%-inhibition at 1 µmol/L, LOK [2, 14]: 42%
%-inhibition at 1 µmol/L, MAP4K2 [3, 14]: -0.698%
%-inhibition at 1 µmol/L, DDR1 [4, 14]: 46%
%-inhibition at 1 µmol/L, TRKC [5, 14]: -1.61%
%-inhibition at 1 µmol/L, SYK [6, 14]: -38%
%-inhibition at 1 µmol/L, CK2α1/β [7, 14]: 12%
%-inhibition at 1 µmol/L, HCK [8, 14]: 0.0489%
%-inhibition, MAPKAPK5 [9, 14]: 0.814%
%-inhibition at 1 µmol/L, LYNa [10, 14]: 0.63%
%-inhibition CDK9/CycT1 [11, 14]: 0.721%
%-inhibition, MARK2 [12, 14]: 26%
%-inhibition at 1 µmol/L, FGFR3 [13, 14]: 10%

CCCS(=O)(=O)Nc1ccc(F)c(C(=O)c2c[nH]c3ncc(-c4ccc(Cl)cc4)cc23)c1F [vemurafenib]
%-inhibition at 1 µmol/L, PKCθ [1, 15]: -3%
%-inhibition at 1 µmol/L, LOK [2, 15]: -1%
%-inhibition at 1 µmol/L, MAP4K2 [3, 15]: 43%
%-inhibition at 1 µmol/L, DDR1 [4, 15]: 52%
%-inhibition at 1 µmol/L, TRKC [5, 15]: 5%
%-inhibition at 1 µmol/L, SYK [6, 15]: -3.77%
%-inhibition at 1 µmol/L, CK2α1/β [7, 15]: -5.39%
%-inhibition at 1 µmol/L, HCK [8, 15]: 30%
%-inhibition, MAPKAPK5 [9, 15]: 12%
%-inhibition at 1 µmol/L, LYNa [10, 15]: 73%
%-inhibition CDK9/CycT1 [11, 15]: 1.33%
%-inhibition, MARK2 [12, 15]: -0.167%
%-inhibition at 1 µmol/L, FGFR3 [13, 15]: 15%
